Structures can show the parent of a compound that is named as a salt.

These results are taken from patent publication US7504517B2, “Kv1.5 potassium channel inhibitors” (Wyeth, priority 2006, dated 2009).

Data set [1] concerns L-type calcium channels. Put plainly: FLIPR L-Type Calcium Channel Assay. The class given is cell-based, murine. The settings on record: HL-1 cells expressing endogenous L-type calcium channels; calcium influx after 20 mM KCl; read-out: L-type Ca^2+ IC50. The procedure:
50 μL per well test compounds are added to the plates and further incubated for 15 min. in a 5% CO2 37° C. incubator. All final solutions contain the anion exchange inhibitor, probenecid (2.5 mM). The 96-well plates are then placed in the center position of the FLIPR 1 (Fluorometric Imaging Plate Reader, Molecular Devices Corporation). Cell monolayers in each well are simultaneously illuminated at 488 nm with an Argon ion laser, and fluorescence emission is monitored using a 510-570 nm bandpass filter and a cooled CCD camera. To depolarize the plasma membrane and activate L-type calcium channels, 50 μL per well of 20 mM KCl (final concentration) are dispensed simultaneously to all 96 wells using the FLIPR's automatic 96-well pipettor. Fluorescence measurements are captured for 5 min. following KCl addition. Calcium influx, expressed as % control, is calculated for each concentration of test compound and concentration-response curves and IC50 values are generated using GraphPad Prism 4.0.

In data set [2] the target is T1, Kv1.5 (Homo sapiens, UniProt P22460).
T1 construct: expressed in transfected cells; host or cells: HEK or LTK- cells
T1 sequence (P22460 whole entry): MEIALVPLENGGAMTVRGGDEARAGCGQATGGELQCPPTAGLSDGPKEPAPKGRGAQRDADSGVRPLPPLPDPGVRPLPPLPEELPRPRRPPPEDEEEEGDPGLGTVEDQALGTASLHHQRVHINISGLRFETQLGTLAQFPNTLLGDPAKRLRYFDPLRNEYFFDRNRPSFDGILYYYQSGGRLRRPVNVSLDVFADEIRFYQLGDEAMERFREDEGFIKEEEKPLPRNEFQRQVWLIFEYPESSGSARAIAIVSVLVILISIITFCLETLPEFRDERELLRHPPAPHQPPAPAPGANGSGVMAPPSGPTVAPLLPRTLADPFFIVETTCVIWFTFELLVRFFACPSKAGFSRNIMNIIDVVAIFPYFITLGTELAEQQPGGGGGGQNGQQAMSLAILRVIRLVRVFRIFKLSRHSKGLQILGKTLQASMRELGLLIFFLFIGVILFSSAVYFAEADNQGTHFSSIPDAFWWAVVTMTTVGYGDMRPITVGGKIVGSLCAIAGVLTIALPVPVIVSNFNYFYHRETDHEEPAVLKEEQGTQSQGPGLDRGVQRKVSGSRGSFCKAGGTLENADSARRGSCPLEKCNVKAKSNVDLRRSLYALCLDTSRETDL
Put plainly: Kv1.5 Patch Clamp EP. In kind it is cell-based. As to conditions: whole cell patch clamp; for IC50: HEK or LTK- cells, at least four concentrations, n=3. How it is done: The external solution is standard Tyrodes solution. […] Inhibition was measured at the end of the 1 second pulses and expressed relative to controls. Initial Kv1.5 inhibition is estimated by single point determinations done at 1 μM.
For orientation: In patch-clamp work, channel activity is measured electrically.

Data set [3] addresses HERG (Homo sapiens, UniProt Q12809). Briefly: HERG Patch Clamp EP. As to conditions: for inhibition at 10 µM: human, HEK cells stably overexpressing HERG.
The mark [4] stands for this setting: 1.0 μM, single point, Kv1.5 stably over expressed in HEK or LTK- cells.

Chain of HERG (Q12809 whole entry): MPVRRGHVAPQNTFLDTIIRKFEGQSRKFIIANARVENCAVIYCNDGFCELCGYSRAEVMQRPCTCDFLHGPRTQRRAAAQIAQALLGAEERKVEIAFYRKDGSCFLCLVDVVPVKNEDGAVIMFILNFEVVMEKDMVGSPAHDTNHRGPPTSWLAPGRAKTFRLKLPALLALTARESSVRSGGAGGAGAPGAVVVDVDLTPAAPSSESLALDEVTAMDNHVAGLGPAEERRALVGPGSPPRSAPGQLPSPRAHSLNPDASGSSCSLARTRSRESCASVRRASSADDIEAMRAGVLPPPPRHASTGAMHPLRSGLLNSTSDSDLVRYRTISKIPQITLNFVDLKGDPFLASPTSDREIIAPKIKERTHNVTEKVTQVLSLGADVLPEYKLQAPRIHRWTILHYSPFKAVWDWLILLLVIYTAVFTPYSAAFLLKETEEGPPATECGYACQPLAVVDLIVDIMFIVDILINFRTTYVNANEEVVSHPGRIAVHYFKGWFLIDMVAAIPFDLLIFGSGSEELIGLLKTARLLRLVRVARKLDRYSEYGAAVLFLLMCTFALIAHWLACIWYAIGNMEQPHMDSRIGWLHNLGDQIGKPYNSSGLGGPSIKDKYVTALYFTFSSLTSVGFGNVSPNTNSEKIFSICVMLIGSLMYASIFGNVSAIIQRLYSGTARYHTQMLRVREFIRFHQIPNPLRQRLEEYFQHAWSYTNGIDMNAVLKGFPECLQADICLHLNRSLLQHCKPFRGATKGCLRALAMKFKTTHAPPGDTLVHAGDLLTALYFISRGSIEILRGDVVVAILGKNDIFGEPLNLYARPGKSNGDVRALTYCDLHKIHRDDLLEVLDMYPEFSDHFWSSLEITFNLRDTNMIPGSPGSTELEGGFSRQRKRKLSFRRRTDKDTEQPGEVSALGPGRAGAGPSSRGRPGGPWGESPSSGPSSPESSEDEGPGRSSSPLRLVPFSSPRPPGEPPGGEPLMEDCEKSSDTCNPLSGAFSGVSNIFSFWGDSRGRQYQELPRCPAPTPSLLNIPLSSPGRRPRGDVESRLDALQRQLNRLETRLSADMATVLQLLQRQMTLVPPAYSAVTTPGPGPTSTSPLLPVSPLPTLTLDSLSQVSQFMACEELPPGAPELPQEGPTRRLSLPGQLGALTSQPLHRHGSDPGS

What is called IC50 is the concentration needed to halve the response being measured. One may read the inhibition as how much of the control response was suppressed. Read a high inhibition as strong suppression. Consider `COc1ccc(CCN2C(=O)N(NC(C)=O)CC2Cc2ccc(C(C)(C)C)cc2)cc1` (stereo not shown) [Compound 71, 1-(Acetylamino)-3-[2-(4-methoxyphenyl)ethyl]-4-[(4-tert-butyl)benzyl]-2-imidazolidinone], for which the IC50 in data set [1] came to 13 µM. In addition, testing at 1 µM in data set [2] (setting [4]) gave an inhibition of 94%. Besides, the inhibition at 10 µM in data set [3] worked out at 30%.
`COc1ccc(CCN2C(=O)N(N)CC2c2ccc(C3CC3)cc2)cc1` (stereo not shown) [Compound 6, 1-Amino-3-[2-(4-methoxyphenyl)ethyl]-4-(4-cyclopropylphenyl)-2-imidazolidinone 4-methylbenzenesulfonic acid salt]: in data set [1], the IC50 came out at 12 µM. The compound further registered an inhibition at 1 µM in data set [2] (setting [4]) of 53%. Also, the inhibition at 10 µM in data set [3] came to 29%.
For `COc1ccc(CCN2C(=O)N(NS(=O)(=O)CS(C)(=O)=O)CC2c2ccc(C3CC3)cc2)cc1` (stereo not shown) [Compound 61, 1-[(Methylsulfonylmethyl)sulfonyl]amino-3-[2-(4-methoxyphenyl)ethyl]-4-(4-Cyclopropylphenyl)-2-imidazolidinone] the same measures were 25 µM, 85% and 28%.
For `COc1ccc(CCN2C(=O)N(NCc3cnc4ccccc4c3)CC2c2ccc(C)c(C)c2)cc1` (stereo not shown) [Compound 96, 4-(3,4-Dimethylphenyl)-3-[2-(4-methoxyphenyl)ethyl]-1-[(quinolin-3-ylmethyl)-amino]-2-imidazolidinone] the same measures were 1.9 µM, 86% and 87%.
As to `COc1ccc(CCN2C(=O)N(NS(C)(=O)=O)CC2c2ccc(C)c(C)c2)cc1` (stereo not shown) [Compound 7, 1-(Methylsulfonylamino)-3-[2-(4-methoxyphenyl)ethyl]-4-(3,4-dimethylphenyl)-2-imidazolidinone], the IC50 is 43 µM in data set [1] and 232 nM in data set [2]. In data set [2] (setting [4]), the inhibition at 1 µM stood at 92%. In data set [3], this compound gave an inhibition at 10 µM of 16%.
Turning to `COc1ccc(CCN2C(=O)N(NS(C)(=O)=O)C[C@H]2c2ccc(OC(F)F)cc2)cc1` [Compound 170, N-{(4R)-4-[4-(difluoromethoxy)phenyl]-3-[2-(4-methoxyphenyl)ethyl]-2-oxoimidazolidin-1-yl}methanesulfonamide], the IC50 in data set [1] worked out at 30 µM. For the same compound, in data set [2] (setting [4]), the inhibition at 1 µM stood at 49%. The compound further gave an inhibition at 10 µM in data set [3] of 62%.
With `COc1ccc(CCN2C(=O)N(NCc3ccc(C#N)cc3)CC2c2ccc(C)c(C)c2)cc1` (stereo not shown) [Compound 83, 1-[(4-Cyanophenylmethyl)amino]-3-[2-(4-methoxyphenyl)ethyl]-4-(3,4-dimethylphenyl)-2-imidazolidinone], the concentration for half-maximal inhibition (IC50) in data set [1] came out at 2.8 µM. The compound also had an inhibition at 1 µM in data set [2] (setting [4]) of 96%. The inhibition at 10 µM in data set [3] is 97%.
Regarding `COc1ccc(CCN2C(=O)N(NC(=O)C3CC3)CC2c2ccc(C(C)(C)C)cc2)cc1` (stereo not shown) [Compound 73, 1-Cyclopropanecarbonylamino-4-[4-(tert-butyl)phenyl]-3-[2-(4-methoxy-phenyl)ethyl]-2-imidazolidinone], the IC50 in data set [1] was 7 µM; in data set [2], 658 nM. The compound also gave an inhibition at 1 µM in data set [2] (setting [4]) of 62%. In data set [3], this compound came in with an inhibition at 10 µM of 56%.
As for `CCCS(=O)(=O)NN1CC(c2ccc(C3CC3)cc2)N(CCc2ccc(OC)cc2)C1=O` (stereo not shown) [Compound 30, 1-(Propylsulfonylamino)-3-[(4-methoxyphenyl)ethyl]-4-(4-cyclopropylphenyl)-2-imidazolidinone], the IC50 in data set [1] was 3.3 µM. Moreover, at 1 µM the inhibition in data set [2] (setting [4]) was 88%. Further, at 10 µM the inhibition in data set [3] was 62%.
For `COc1ccc(CCN2C(=O)N(NC(=O)c3ccno3)CC2c2ccc(C(C)(C)C)cc2)cc1` (stereo not shown) [Compound 79, 1-(Isoxazol-5-ylcarbonylamino)-3-[2-(4-methoxyphenyl)-ethyl]-4-[4-(tert-butyl)phenyl]-2-imidazolidinone] the same measures were 11 µM, 68% and 70%.
On to `COc1ccc(CCN2C(=O)N(N(CCn3ccnc3)C(=O)C(C)C)CC2c2ccc(C(C)(C)C)cc2)cc1` (stereo not shown) [Compound 99, 1-N-[2-(Imidazol-1-yl)ethyl]-N-[iso-butyroyl]amino-3-[2-(4-methoxyphenyl)-ethyl]-4-[(4-tert-butyl)phenyl]-2-imidazolidinone], for which the concentration for half-maximal inhibition (IC50) in data set [1] came to 4.9 µM. Further, the inhibition at 1 µM in data set [2] (setting [4]) is 73%. The inhibition at 10 µM in data set [3] stood at 90%.
Take `COc1ccc(CCN2C(=O)N(NS(C)(=O)=O)C[C@@H]2c2ccc(OC(F)F)cc2)cc1` [Compound 171, N-{(4S)-4-[4-(difluoromethoxy)phenyl]-3-[2-(4-methoxyphenyl)ethyl]-2-oxoimidazolidin-1-yl}methanesulfonamide]: the IC50 in data set [1] is 30 µM; in data set [2], 531 nM; in data set [3], 5.8 µM. The inhibition at 1 µM in data set [2] (setting [4]) worked out at 71%. This compound came in with an inhibition at 10 µM in data set [3] of 55%.
As to `COc1ccc(CCN2C(=O)N(N(C)S(=O)(=O)Cc3ccccc3)CC2c2ccc(C)c(C)c2)cc1` (stereo not shown) [Compound 67, 1-[(N-methyl-N-benzylsulfonyl)amino]-3-[2-(4-methoxy-phenyl)ethyl]-4-(3,4-dimethylphenyl)-2-imidazolidinone], the IC50 in data set [1] worked out at 8 µM. Besides, testing at 1 µM in data set [2] (setting [4]) gave an inhibition of 90%. The same compound gave an inhibition at 10 µM in data set [3] of 22%.
For `COc1ccc(CCN2C(=O)N(NCc3cccnc3)CC2c2ccc(C)c(C)c2)cc1` (stereo not shown) [Compound 94, 1-[(Pyridin-3-ylmethyl)amino]-3-[2-(4-methoxyphenyl)ethyl]-4-(3,4-dimethylphenyl)-2-imidazolidinone], the IC50 in data set [1] was found to be 13 µM. In addition, the inhibition at 1 µM in data set [2] (setting [4]) came to 67%. The inhibition at 10 µM in data set [3] came out at 35%.
For `COc1ccc(CCN2C(=O)N(NS(=O)(=O)CC(=O)N(C)C)CC2c2ccc(C3CC3)cc2)cc1` (stereo not shown) [Compound 54, 1-[[2-(Dimethylamino)-2-oxoethyl]sulfonylamino]-3-[2-(4-methoxyphenyl)-ethyl]-4-(4-cyclopropylphenyl)-2-imidazolidinone] the same measures were 30 µM, 80% and 46%.
As for `COc1ccc(CCN2C(=O)N(NS(C)(=O)=O)CC2c2ccc(OC(F)(F)F)cc2)cc1` (stereo not shown) [Compound 27, 1-[(Methylsulfonyl)amino]-3-[2-(4-methoxyphenyl)ethyl]-4-(4-trifluoro-methoxyphenyl)-2-imidazolidinone], the IC50 in data set [1] came to 19 µM. Moreover, the “Kv1.5% inhibition @ 1.0 μM” value in data set [2] (setting [4]) is 56%. In addition, the “HERG % Inhib. @ 10 μM” value in data set [3] (10 μM, single point, whole cell patch clamp, HERG stably over expressed in HEK cells, peak tail current) came to 63%.
Turning to `COc1ccc(CCN2C(=O)N(NS(C)(=O)=O)C[C@H]2c2ccc(C(C)(C)C)cc2)cc1` [Compound 172, N-{(4R)-4-(4-tert-butylphenyl)-3-[2-(4-methoxyphenyl)ethyl]-2-oxoimidazolidin-1-yl}methanesulfonamide], the IC50 in data set [1] worked out at 9.8 µM. In data set [2] (setting [4]), this compound displayed an inhibition at 1 µM of 55%. In data set [3], the inhibition at 10 µM was 51%.
For the compound `COc1ccc(CCCN2C(=O)N(NS(C)(=O)=O)CC2c2ccc(C3CC3)cc2)cc1` (stereo not shown) [Compound 48, 1-(Methylsulfonylamino)-3-[3-(4-methoxyphenyl)propyl]-4-[(4-cyclopropyl)-phenyl]-2-imidazolidinone], the half-inhibitory concentration (IC50) in data set [1] amounted to 9 µM; in data set [2] it was 231 nM; in data set [3], 3.6 µM. This compound came in with an inhibition at 1 µM in data set [2] (setting [4]) of 96%. In addition, the inhibition at 10 µM in data set [3] worked out at 70%.
For `COc1ccc(CCN2C(=O)N(NCc3ccc(F)cc3)CC2c2ccc(C)c(C)c2)cc1` (stereo not shown) [Compound 89, 1-[(4-Fluorophenylmethyl)amino]-3-[2-(4-methoxyphenyl)ethyl]-4-(3,4-dimethylphenyl)-2-imidazolidinone], the IC50 in data set [1] came to 7.6 µM. In data set [2] (setting [4]), this compound showed an inhibition at 1 µM of 85%. Besides, 10 µM produced 98% inhibition in data set [3].
As to `COc1ccc(CCN2C(=O)N(NS(C)(=O)=O)C[C@@H]2c2ccc(OC)cc2)cc1` [Compound 107, N-{(4S)-4-(4-methoxyphenyl)-3-[2-(4-methoxyphenyl)ethyl]-2-oxoimidazolidin-1-yl}methanesulfonamide], the IC50 in data set [1] worked out at 39 µM; in data set [2] it was 1100 nM; in data set [3], 54 µM. This compound showed an inhibition at 1 µM in data set [2] (setting [4]) of 41%.
As for `COc1ccc(CCN2C(=O)N(NS(C)(=O)=O)C[C@@H]2c2ccc(C(C)(C)C)cc2)cc1` [Compound 173, N-{(4S)-4-(4-tert-butylphenyl)-3-[2-(4-methoxyphenyl)ethyl]-2-oxoimidazolidin-1-yl}methanesulfonamide], the 50% inhibitory concentration (IC50) in data set [1] was found to be 14.6 µM. The compound also had an inhibition at 1 µM in data set [2] (setting [4]) of 94%. Further, the inhibition at 10 µM in data set [3] was 48%.
For `COc1ccc(CCCN2C(=O)N(NS(N)(=O)=O)CC2c2ccc(OC)cc2)cc1` (stereo not shown) [Compound 44, 1-(Sulfamoylamino)-3-[3-(4-methoxyphenyl)propyl]-4-[(4-methoxy)phenyl]-2-imidazolidinone] the same measures were 25 µM, 60% and 22%.
